Data as given in ChEMBL document CHEMBL3046096, “CoMFA AND CoMSIA STUDIES ON A SET OF BENZYL PIPERAZINES, PIPERADINES, PYRAZINOPYRIDOINDOLES, PYRAZINOISOQUINOLINES AND SEMI RIGID ANALOGS OF DIPHENHYDRAMINE” (Med Chem Res, 2004).

Target: Histamine H1 receptor (Cavia porcellus) (UniProt P31389)
Assay: Antagonist activity at histamine H1 receptor in Cavia porcellus (guinea pig) ileum
Assay type: tissue-based

Chain of Histamine H1 receptor (Cavia porcellus) (P31389 whole entry): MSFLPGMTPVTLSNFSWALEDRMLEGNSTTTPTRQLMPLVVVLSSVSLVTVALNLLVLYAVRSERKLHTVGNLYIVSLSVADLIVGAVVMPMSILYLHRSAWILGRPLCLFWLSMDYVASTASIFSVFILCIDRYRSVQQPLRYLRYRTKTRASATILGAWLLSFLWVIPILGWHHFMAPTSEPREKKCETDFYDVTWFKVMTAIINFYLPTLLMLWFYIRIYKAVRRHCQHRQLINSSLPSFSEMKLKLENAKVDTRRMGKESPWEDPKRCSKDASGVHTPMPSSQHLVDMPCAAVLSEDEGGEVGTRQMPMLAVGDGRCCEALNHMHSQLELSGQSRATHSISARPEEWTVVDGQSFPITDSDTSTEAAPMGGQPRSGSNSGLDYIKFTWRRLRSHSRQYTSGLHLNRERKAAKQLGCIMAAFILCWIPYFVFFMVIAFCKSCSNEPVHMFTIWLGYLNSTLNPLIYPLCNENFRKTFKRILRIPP

Row | SMILES | Activity
1 | CCc1ccccc1NC(=O)CCN1CCN(Cc2ccccc2)CC1 | 0.778 µM/L
2 | O=C(NCCN1CCN(Cc2ccccc2)CC1)c1ccccc1I | 0.345 µM/L
3 | O=C(CCN1CCN(Cc2ccccc2)CC1)Nc1ccccc1[N+](=O)[O-] | 1.7 µM/L
4 | O=C(NCCN1CCN(Cc2ccccc2)CC1)c1ccccc1 | 6.94 µM/L
5 | Nc1ccccc1C(=O)NCCN1CCN2Cc3[nH]c4ccccc4c3CC2C1 (centres undefined) | 0.925 µM/L
6 | O=C(NCCN1CCN(Cc2ccccc2)CC1)c1ccccc1Cl | 0.696 µM/L
7 | Cc1ccccc1C(=O)NCCN1CCN2Cc3[nH]c4ccccc4c3CC2C1 (centres undefined) | 0.283 µM/L
8 | O=C(NCCN1CCN2Cc3[nH]c4ccccc4c3CC2C1)c1ccccc1 (centres undefined) | 0.535 µM/L
9 | O=C(NCCN1CCC(Cc2ccccc2)CC1)c1ccccc1 | 1.55 µM/L
10 | O=C(CCN1CCN2Cc3ccccc3CC2C1)Nc1ccccc1Cl (centres undefined) | 0.677 µM/L
11 | O=C(NCCN1CCC(Cc2ccccc2)CC1)c1ccccc1Br | 0.661 µM/L
12 | CN(C)C[C@@H]1O[C@@H](c2ccccc2)c2ccccc21 (relative stereo) | 0.0039 µM/L
13 | CN(C)[C@@H]1CO[C@@H](c2ccccc2)c2ccccc21 (relative stereo) | 0.51 µM/L
14 | O=C(CCN1CCN2Cc3[nH]c4ccccc4c3CC2C1)Nc1ccccc1 (centres undefined) | 1.6 µM/L
15 | Cc1ccccc1C(=O)NCCN1CCC(Cc2ccccc2)CC1 | 1.07 µM/L
16 | O=C(CCN1CCN2Cc3ccccc3CC2C1)Nc1ccccc1[N+](=O)[O-] (centres undefined) | 1.32 µM/L
17 | O=C(CCN1CCN(Cc2ccccc2)CC1)Nc1ccccc1F | 1.32 µM/L
18 | O=C(NCCN1CCN2Cc3[nH]c4ccccc4c3CC2C1)c1ccccc1[N+](=O)[O-] (centres undefined) | 0.375 µM/L
19 | O=C(CCN1CCN(Cc2ccccc2)CC1)Nc1ccccc1 | 2.17 µM/L
20 | Cc1ccccc1C(=O)NCCN1CCN(Cc2ccccc2)CC1 | 7.12 µM/L
21 | O=C(NCCN1CCN(Cc2ccccc2)CC1)c1ccccc1Br | 0.421 µM/L
22 | O=C(CCN1CCN2Cc3ccccc3CC2C1)Nc1ccccc1 (centres undefined) | 1.34 µM/L
23 | O=C(CCN1CCC(Cc2ccccc2)CC1)Nc1ccccc1 | 1.51 µM/L
24 | O=C(CCN1CCC(Cc2ccccc2)CC1)Nc1ccccc1F | 0.832 µM/L
25 | O=C(CCN1CCN2Cc3[nH]c4ccccc4c3CC2C1)Nc1ccccc1[N+](=O)[O-] (centres undefined) | 1.74 µM/L
26 | O=C(CCN1CCN2Cc3[nH]c4ccccc4c3CC2C1)Nc1ccccc1Cl (centres undefined) | 0.979 µM/L

Continued, values first:

Row | Activity | SMILES
27 | 0.0039 µM/L | CN(C)C[C@@H]1O[C@H](c2ccccc2)c2ccccc21 (relative stereo)
28 | 0.799 µM/L | O=C(NCCN1CCC(Cc2ccccc2)CC1)c1ccccc1Cl
29 | 0.634 µM/L | CCc1ccccc1NC(=O)CCN1CCN2Cc3[nH]c4ccccc4c3CC2C1 (centres undefined)
30 | 0.039 µM/L | CN(C)CCOC1c2ccccc2-c2ccccc21
31 | 0.364 µM/L | COc1ccccc1C(=O)NCCN1CCN2Cc3[nH]c4ccccc4c3CC2C1 (centres undefined)
32 | 0.963 µM/L | COc1ccccc1NC(=O)CCN1CCC(Cc2ccccc2)CC1
33 | 0.206 µM/L | O=C(NCCN1CCN2Cc3[nH]c4ccccc4c3CC2C1)c1ccccc1Cl (centres undefined)
34 | 0.561 µM/L | O=C(CCN1CCC(Cc2ccccc2)CC1)Nc1ccccc1Cl
35 | 1.28 µM/L | O=C(CCN1CCN2Cc3[nH]c4ccccc4c3CC2C1)Nc1ccccc1F (centres undefined)
36 | 1.32 µM/L | O=C(NCCN1CCN(Cc2ccccc2)CC1)c1ccccc1[N+](=O)[O-]
37 | 0.477 µM/L | CCc1ccccc1NC(=O)CCN1CCC(Cc2ccccc2)CC1
38 | 0.836 µM/L | O=C(CCN1CCN(Cc2ccccc2)CC1)Nc1ccccc1Cl
39 | 0.525 µM/L | CCc1ccccc1NC(=O)CCN1CCN2Cc3ccccc3CC2C1 (centres undefined)
